Data taken from ChEMBL document CHEMBL4706525, “Designing an eEF2K-Targeting PROTAC small molecule that induces apoptosis in MDA-MB-231 cells” (Eur J Med Chem, 2020).
Calls of active or inactive are those of the source. The calls are words filed in the database; no cut-off is given here.

How the values were obtained:
[1] = target: T1, Protein cereblon/Eukaryotic elongation factor 2 kinase (Homo sapiens) (UniProt O00418+Q96SW2); test: Protac activity at eEF2K/E3 ubiquitin ligase in human MDA-MB-231 cells assessed as degradation of eEF2K at 200 uM measured after 24 hrs by western blot assay; type: cell-based
MDA-MB-231 [2] = test: Effect on eEF2K expression in human MDA-MB-231 cells at 10 uM measured after 2 hrs by western blot assay; type: functional, cell-based
[3] = target: T1, Protein cereblon/Eukaryotic elongation factor 2 kinase (Homo sapiens); test: Protac activity at eEF2K/E3 ubiquitin ligase in human MDA-MB-231 cells assessed as degradation of p-eEF2K measured after 24 hrs by western blot assay; type: cell-based; conditions: dose 50-200 µM
MDA-MB-231 [4] = test: Induction of apoptosis in human MDA-MB-231 cells assessed as viable cells at 100 uM measured after 24 hrs by Annexin V/PI staining based flowcytometry method (reference value: 94.63%); type: functional; conditions: read-out: Activity
MDA-MB-231 [5] = test: Induction of apoptosis in human MDA-MB-231 cells assessed as early apoptotic cells at 50 uM measured after 24 hrs by Annexin V/PI staining based flowcytometry method (reference value: 3.12%); type: functional
MDA-MB-231 [6] = test: Antiproliferative activity against human MDA-MB-231 cells at 100 uM measured by crystal violet staining based colony forming assay; type: functional, cell-based
MDA-MB-231 [7] = test: Induction of apoptosis in human MDA-MB-231 cells assessed as late apoptotic cells at 100 uM measured after 24 hrs by Annexin V/PI staining based flowcytometry method (reference value: 1.81%); type: functional
MDA-MB-231 [8] = test: Induction of apoptosis in human MDA-MB-231 cells assessed as necrotic cells at 50 uM measured after 24 hrs by Annexin V/PI staining based flowcytometry method (reference value: 0.44%); type: functional
[9] = target: T1, Protein cereblon/Eukaryotic elongation factor 2 kinase (Homo sapiens); test: Protac activity at eEF2K/E3 ubiquitin ligase in human MDA-MB-231 cells assessed as degradation of eEF2K measured after 24 hrs by western blot assay; type: cell-based; conditions: dose 50-200 µM
MDA-MB-231 [10] = test: Induction of apoptosis in human MDA-MB-231 cells assessed as upregulation of cleaved caspase3 expression at 50 to 200 uM measured after 24 hrs by western blot assay; type: functional, cell-based; conditions: dose 50-200 µM
MDA-MB-231 [11] = test: Induction of apoptosis in human MDA-MB-231 cells assessed as viable cells at 200 uM measured after 24 hrs by Annexin V/PI staining based flowcytometry method (reference value: 94.63%); type: functional; conditions: read-out: Activity
[12] = target: T1, Protein cereblon/Eukaryotic elongation factor 2 kinase (Homo sapiens); test: Protac activity at eEF2K/E3 ubiquitin ligase in human MDA-MB-231 cells assessed as degradation of eEF2K at 100 uM pretreated with thalidomide for 2 hrs followed by compound addition measured after 8 hrs by western blot assay; type: cell-based
MDA-MB-231 [13] = test: Induction of apoptosis in human MDA-MB-231 cells assessed as late apoptotic cells at 200 uM measured after 24 hrs by Annexin V/PI staining based flowcytometry method (reference value: 1.81%); type: functional
MDA-MB-231 [14] = test: Induction of apoptosis in human MDA-MB-231 cells assessed as late apoptotic cells at 50 uM measured after 24 hrs by Annexin V/PI staining based flowcytometry method (reference value: 1.81%); type: functional
MDA-MB-231 [15] = test: Induction of apoptosis in human MDA-MB-231 cells assessed as necrotic cells at 100 uM measured after 24 hrs by Annexin V/PI staining based flowcytometry method (reference value: 0.44%); type: functional
MDA-MB-231 [16] = test: Induction of apoptosis in human MDA-MB-231 cells assessed as necrotic cells at 200 uM measured after 24 hrs by Annexin V/PI staining based flowcytometry method (reference value: 0.44%); type: functional
MDA-MB-231 [17] = test: Induction of apoptosis in human MDA-MB-231 cells assessed as early apoptotic cells at 100 uM measured after 24 hrs by Annexin V/PI staining based flowcytometry method (reference value: 3.12%); type: functional
MDA-MB-231 [18] = test: Induction of apoptosis in human MDA-MB-231 cells assessed as viable cells at 50 uM measured after 24 hrs by Annexin V/PI staining based flowcytometry method (reference value: 94.63%); type: functional; conditions: read-out: Activity
MDA-MB-231 [19] = test: Induction of apoptosis in human MDA-MB-231 cells assessed as decrease in Bcl2 expression at 50 to 200 uM measured after 24 hrs by western blot assay; type: functional, cell-based; conditions: dose 50-200 µM
[20] = target: T1, Protein cereblon/Eukaryotic elongation factor 2 kinase (Homo sapiens); test: Protac activity at eEF2K/E3 ubiquitin ligase in human MDA-MB-231 cells assessed as degradation of eEF2K at 12.5 to 200 uM measured after 24 hrs by western blot assay; type: cell-based; conditions: dose 12.5-200 µM
MCF-10A = test: Cytotoxicity against human MCF-10A cells; type: cell-based
MDA-MB-231 [21] = test: Induction of apoptosis in human MDA-MB-231 cells assessed as upregulation of Bax expression at 50 to 200 uM measured after 24 hrs by western blot assay; type: functional, cell-based; conditions: dose 50-200 µM
[22] = target: T1, Protein cereblon/Eukaryotic elongation factor 2 kinase (Homo sapiens); test: Protac activity at eEF2K/E3 ubiquitin ligase in human MDA-MB-231 cells assessed as degradation of eEF2K at 100 uM pretreated with MG-132 for 2 hrs followed by compound addition measured after 8 hrs by western blot assay; type: cell-based
MDA-MB-231 [23] = test: Induction of apoptosis in human MDA-MB-231 cells assessed as early apoptotic cells at 200 uM measured after 24 hrs by Annexin V/PI staining based flowcytometry method (reference value: 3.12%); type: functional
MDA-MB-231 [24] = test: Induction of apoptosis in human MDA-MB-231 cells at 100 uM measured after 24 hrs by Hoechst staining based fluorescence microscopic method; type: functional, cell-based
[25] = target: T2, Eukaryotic elongation factor 2 kinase (Homo sapiens, UniProt O00418); test: Inhibition of eEF2K (unknown origin)
T2 sequence (O00418 whole entry): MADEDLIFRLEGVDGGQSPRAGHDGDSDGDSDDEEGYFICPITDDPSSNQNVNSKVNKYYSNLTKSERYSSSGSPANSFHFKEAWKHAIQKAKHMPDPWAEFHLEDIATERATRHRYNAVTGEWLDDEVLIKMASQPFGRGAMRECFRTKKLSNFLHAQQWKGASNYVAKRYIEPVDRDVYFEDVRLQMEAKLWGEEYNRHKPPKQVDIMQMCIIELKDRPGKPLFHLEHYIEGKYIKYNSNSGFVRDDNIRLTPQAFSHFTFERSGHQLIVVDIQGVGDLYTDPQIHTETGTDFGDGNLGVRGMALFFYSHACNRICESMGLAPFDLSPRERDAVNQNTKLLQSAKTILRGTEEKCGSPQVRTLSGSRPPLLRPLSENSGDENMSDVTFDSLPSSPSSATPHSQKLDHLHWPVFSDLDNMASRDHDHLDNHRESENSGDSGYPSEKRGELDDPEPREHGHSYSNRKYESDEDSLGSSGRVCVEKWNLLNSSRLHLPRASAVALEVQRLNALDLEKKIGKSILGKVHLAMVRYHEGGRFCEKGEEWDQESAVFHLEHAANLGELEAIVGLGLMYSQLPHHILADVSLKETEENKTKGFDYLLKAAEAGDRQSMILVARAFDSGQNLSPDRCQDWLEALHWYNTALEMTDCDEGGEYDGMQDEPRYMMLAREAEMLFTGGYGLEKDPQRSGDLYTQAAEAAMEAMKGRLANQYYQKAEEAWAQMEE

T1 sequence (Q96SW2 whole entry, looked up, one chain of several): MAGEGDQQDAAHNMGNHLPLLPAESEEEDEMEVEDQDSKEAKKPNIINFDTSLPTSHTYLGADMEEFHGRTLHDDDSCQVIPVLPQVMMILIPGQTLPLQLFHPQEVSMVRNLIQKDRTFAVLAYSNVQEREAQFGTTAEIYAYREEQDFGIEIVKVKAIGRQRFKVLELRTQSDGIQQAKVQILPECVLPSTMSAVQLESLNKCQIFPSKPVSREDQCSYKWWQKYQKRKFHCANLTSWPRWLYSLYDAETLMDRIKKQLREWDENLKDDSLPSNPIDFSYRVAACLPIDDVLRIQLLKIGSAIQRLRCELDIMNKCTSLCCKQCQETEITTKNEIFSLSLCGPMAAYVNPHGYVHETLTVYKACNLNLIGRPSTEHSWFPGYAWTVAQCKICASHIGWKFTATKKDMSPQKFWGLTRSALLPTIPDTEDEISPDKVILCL

CCn1c(=O)n(CC(=O)NCCNc2cccc3c2C(=O)N(C2CCC(=O)NC2=O)C3=O)c(=O)c2cc(C(N)=O)c(N)nc21 (configuration not stated)
Activity [1]: inactive

CCn1c(=O)n(CC(=O)NCCNC(=O)COc2cccc3c2C(=O)N(C2CCC(=O)NC2=O)C3=O)c(=O)c2cc(C(N)=O)c(N)nc21 (configuration not stated)
Activity [1]: 10%

CCn1c(=O)n(CC(=O)NCCCCCNC(=O)COc2cccc3c2C(=O)N(C2CCC(=O)NC2=O)C3=O)c(=O)c2cc(C(N)=O)c(N)cc21 (configuration not stated)
Activity [1]: 32%

O=C1CCC(N2C(=O)c3ccccc3C2=O)C(=O)N1 (configuration not stated)
Activity (MDA-MB-231 [2]): inactive

NC(=O)c1cc2c(=O)n(CC(=O)NCCOCCNC(=O)COc3cccc4c3C(=O)N(C3CCC(=O)NC3=O)C4=O)c(=O)n(C3CC3)c2cc1N (configuration not stated)
Activity [1]: inactive

CCn1c(=O)n(CC(=O)NCCOCCNC(=O)COc2cccc3c2C(=O)N(C2CCC(=O)NC2=O)C3=O)c(=O)c2cc(C(N)=O)c(N)nc21 (configuration not stated)
Activity [3]: Active
viability at 100 µM (MDA-MB-231 [4]): 84.4%
Activity (MDA-MB-231 [5]): 5.29%
Activity (MDA-MB-231 [6]): Active
Activity (MDA-MB-231 [7]): 7.38%
Activity (MDA-MB-231 [8]): 1.6%
Activity [9]: Active
Activity (MDA-MB-231 [10]): Active
Activity [1]: 56.7%
viability at 200 µM (MDA-MB-231 [11]): 67.6%
Activity [12]: inactive
Activity (MDA-MB-231 [13]): 6.12%
Activity (MDA-MB-231 [14]): 3.24%
Activity (MDA-MB-231 [15]): 0.68%
Activity (MDA-MB-231 [16]): 1.57%
Activity (MDA-MB-231 [17]): 7.51%
viability at 50 µM (MDA-MB-231 [18]): 89.9%
Activity (MDA-MB-231 [19]): Active
Activity [20]: Active
Activity (MCF-10A): Toxic
Activity (MDA-MB-231 [21]): Active
Activity [22]: inactive
Activity (MDA-MB-231 [23]): 24.72%
Activity (MDA-MB-231 [24]): Active

NC(=O)c1cc2c(=O)n(CC(=O)NCCOCCNc3cccc4c3C(=O)N(C3CCC(=O)NC3=O)C4=O)c(=O)n(C3CC3)c2cc1N (configuration not stated)
Activity [1]: inactive

CCn1c(=O)c2cc(C(N)=O)c(N)nc2n(C2CC2)c1=O
Activity (MDA-MB-231 [6]): Active
Activity (MDA-MB-231 [24]): Active

NC(=O)c1cc2c(=O)n(CC(=O)NCCCCNc3cccc4c3C(=O)N(C3CCC(=O)NC3=O)C4=O)c(=O)n(C3CC3)c2nc1N (configuration not stated)
Activity [1]: inactive

NC(=O)c1cc2c(=O)n(CC(=O)NCCCNC(=O)COc3cccc4c3C(=O)N(C3CCC(=O)NC3=O)C4=O)c(=O)n(C3CC3)c2cc1N (configuration not stated)
Activity [1]: inactive

CCn1c(=O)n(CC(=O)NCCCCNC(=O)COc2cccc3c2C(=O)N(C2CCC(=O)NC2=O)C3=O)c(=O)c2cc(C(N)=O)c(N)nc21 (configuration not stated)
Activity [1]: 26%

CCn1c(=O)n(CC(=O)NCCCNC(=O)COc2cccc3c2C(=O)N(C2CCC(=O)NC2=O)C3=O)c(=O)c2cc(C(N)=O)c(N)cc21 (configuration not stated)
Activity [1]: 15.4%

N#CC1=C(N)SC(N)=C(C#N)C1c1ccccc1F
IC50 [25]: 60 µM

Cc1ccc(C2=NC(C)(O)CC(C(C)C)[Se]2)cc1 (configuration not stated)
IC50 [25]: 0.31 µM

CCn1c(=O)n(CC(=O)NCCCCCNc2cccc3c2C(=O)N(C2CCC(=O)NC2=O)C3=O)c(=O)c2cc(C(N)=O)c(N)cc21 (configuration not stated)
Activity [1]: 24%

NC(=O)c1cc2c(=O)n(CC(=O)NCCCNc3cccc4c3C(=O)N(C3CCC(=O)NC3=O)C4=O)c(=O)n(C3CC3)c2nc1N (configuration not stated)
Activity [1]: inactive

NC(=O)c1cc2c(=O)n(CC(=O)NCCCCNC(=O)COc3cccc4c3C(=O)N(C3CCC(=O)NC3=O)C4=O)c(=O)n(C3CC3)c2nc1N (configuration not stated)
Activity [1]: inactive

CCn1c(=O)n(CC(=O)NCCCNc2cccc3c2C(=O)N(C2CCC(=O)NC2=O)C3=O)c(=O)c2cc(C(N)=O)c(N)nc21 (configuration not stated)
Activity [1]: 20%

NC(=O)c1cc2c(=O)n(CC(=O)NCCCCCNC(=O)COc3cccc4c3C(=O)N(C3CCC(=O)NC3=O)C4=O)c(=O)n(C3CC3)c2cc1N (configuration not stated)
Activity [1]: inactive

CCn1c(=O)n(CC(=O)NCCOCCNc2cccc3c2C(=O)N(C2CCC(=O)NC2=O)C3=O)c(=O)c2cc(C(N)=O)c(N)cc21 (configuration not stated)
Activity [1]: 15%

CCn1c(=O)n(CC(=O)NCCCCCCNc2cccc3c2C(=O)N(C2CCC(=O)NC2=O)C3=O)c(=O)c2cc(C(N)=O)c(N)nc21 (configuration not stated)
Activity [1]: 20%

NC(=O)c1cc2c(=O)n(CC(=O)NCCCCCCNC(=O)COc3cccc4c3C(=O)N(C3CCC(=O)NC3=O)C4=O)c(=O)n(C3CC3)c2nc1N (configuration not stated)
Activity [1]: inactive

NC(=O)c1cc2c(=O)n(CC(=O)NCCNc3cccc4c3C(=O)N(C3CCC(=O)NC3=O)C4=O)c(=O)n(C3CC3)c2nc1N (configuration not stated)
Activity [1]: inactive

CCn1c(=O)n(CC(=O)NCCCCNc2cccc3c2C(=O)N(C2CCC(=O)NC2=O)C3=O)c(=O)c2cc(C(N)=O)c(N)nc21 (configuration not stated)
Activity [1]: 35%

NC(=O)c1cc2c(=O)n(CC(=O)NCCNC(=O)COc3cccc4c3C(=O)N(C3CCC(=O)NC3=O)C4=O)c(=O)n(C3CC3)c2nc1N (configuration not stated)
Activity [1]: inactive

NC(=O)c1cc2c(=O)n(CC(=O)NCCCCCNc3cccc4c3C(=O)N(C3CCC(=O)NC3=O)C4=O)c(=O)n(C3CC3)c2cc1N (configuration not stated)
Activity [1]: inactive

NC(=O)c1cc2c(=O)n(CC(=O)NCCCCCCNc3cccc4c3C(=O)N(C3CCC(=O)NC3=O)C4=O)c(=O)n(C3CC3)c2nc1N (configuration not stated)
Activity [1]: inactive

CCn1c(=O)n(CC(=O)NCCCCCCNC(=O)COc2cccc3c2C(=O)N(C2CCC(=O)NC2=O)C3=O)c(=O)c2cc(C(N)=O)c(N)nc21 (configuration not stated)
Activity [1]: 35.3%
